Legend:
Bcl-xL-Y101K = assay: Heterocomplex formation with Bcl-xL-Y101K mutant; assay type: binding, human
Experimental: When not specified, proteins tested for binding experiments were mixed at 100 μM, dialyzed against 10 mM CHES pH 9, 50 mM NaCl, 1 mM DTT or TCEP, depending on the analysis, and heated overnight at 30 °C.
For binding experiments, 100 to 200PL of protein mixture were loaded on a size exclusion chromatography (S200, GE Healthcare) column, while elution profiles were measured by UV absorption at 280 nm.
SEC-MALS experiments were performed on a multi-angle light scattering detector (miniDAWN TREOS, Wyatt Technologies) coupled in-line with SEC and an interferometric refractometer (Optilab T-rEX, Wyatt Technologies). See Supplementary Information for full details.
Prior to any mass spectrometry experiment, protein buffer was exchanged twice against a 50 mM ammonium acetate (NH4Ac) solution at pH 9.0 using microcentrifuge gel filtration columns (Zeba 0.5 ml, Thermo Scientific, Rockford, IL). Protein concentration was determined spectrophotometrically. […]
Gel filtration. For binding experiments, 100 to 200PL of protein mixture were loaded on a size exclusion chromatography (S200, GE Healthcare) column, while elution profiles were measured by UV absorption at 280nm. […]
For MALS experiments, the molar mass was determined by construction of Debye plot using Zimm formalism (plot of K*c/R(T) as a function of sin2(T/2)) at 0.5 and 1sec data intervals, for Superdex S200 column. […]

[1] = tested on: thymocytes from TCTP^+/− mice; assay: Complementation (viability) of γ-irradiated TCTP+/− thymocytes; assay type: cell-based, mouse; conditions: γ-irradiation 2.5 Gy; overnight culture; 0 to 1000 nM
Text: Figure 4 Molecular/functional analysis of the h1 (P1) subregion of BH3-TCTP. […]
Peptides used for in vitro assays:
WT-TCTP (11-31): […]
R21A-TCTP (11-31): […]
Hybrid Bax/TCTP: […]
Peptides used for in vivo assays:
WT-TCTP (1-31) : […]
Hybrid Bax-TCTP: […]
TCTP-FLAG peptides used for in vivo assays:
WT-TCTP (1-31)-FLAG : […] DYKDDDDK-OH
TCTP-Bax-TCTP-FLAG: […]-OH […]
subdomain in the BH3 motif is underlined. Peptides were purchased from Smartox […]
Complementation and transduction experiments
In order to complement the haploinsufficient TCTP+/- mice with exogenous TCTP, we took advantage of the fact that the first N-terminal fragment of TCTP functions as a Protein Transduction Domain (PTD), enabling TCTP to penetrate into the cell by a mechanism hitherto […]
not well understood23,27-29. […]
of γ irradiation) and cultured, at a concentration of 10^7 cells/ml, overnight in the presence of […]
20) at concentrations ranging from 0-1000nM. For the transduction assays using WT-TCTP- […]
concentrations were 10 microM, 50 microM and 100 microM.
γ-irradiated thymocytes were fixed by adding 500ul of PFA 4% and incubated for 20 min at room temperature. The cells were washed twice with PBS and permeabilized for 10 min with 0.2% triton X-100 in PBS at room temp. The cells were washed twice with PBS. Proteins were blocked in Blocking buffer (1% BSA 0.5% Tween in PBS) 1h at room temperature. The primary antibody was added with blocking buffer and placed in a rotating wheel overnight in a cold room.
Cells were then washed 3 times with PBS and incubated with secondary antibody with blocking buffer 1h at room temperature. The cells were washed 3 times with PBS and suspended in 200 µL PBS and used for Flow Cytometry or further used for immunohistochemistry: 5 µl of each sample were mixed with 5 µl of ProLong® Gold antifade reagent (Life Technologies) and visualized, using the IX73 inverted fluorescence microscope and the cellSens™ Dimension […]
FACS analysis (BD Accuri™ C6 Cytometer (BD Biosciences) of incorporation of exogenous

Substance: TCTP: Translationally Controlled Tumor Protein (TCTP/tpt1), recombinant full-length
- complex formation with Bcl-xL-Y101K mutant (Bcl-xL-Y101K): unable to form heterocomplexes
- rescue of TCTP+/− haploinsufficient phenotype / anti-apoptotic function [1]: rescue completely the TCTP^+/− haploinsufficient phenotype

From PMC4728560 (Scientific Reports, 2016)
